Assay results: patent publication US11572548B2, “Reaction mixture for synthesis of alpha1-2-fucosides” (The Regents of the University of California, priority 2015, dated 2023)
“Also recorded” adds a separate entry of the source.

Key:
His6-Te2FT [1] = biological target: T1, His6-Te2FT (Thermosynechococcus vestitus, UniProt Q8DK72); assay: Effects of metal ions, DTT and EDTA on α1-2-fucosyltransferase activity; format: biochemical, Thermosynechococcus elongatus BP-1; conditions: pH 7.5; for enhancement of α1-2-fucosyltransferase activity: 5-20 mM added; for enhancement of α1-2-fucosyltransferase activity / effect on α1-2-fucosyltransferase activity: acceptor Galβ1-3GlcNAcβ2AA; for effect on α1-2-fucosyltransferase activity: 10 mM added
Description: For metal effects, various concentrations (5 mM, 10 mM, or 20 mM) of MgCl2 or MnCl2 were added and EDTA (as a chelating agent) (10 mM) and DTT (10 mM) were used in a Tris-HCl buffer (pH 7.5, 200 mM) to analyze their effects on the α1-2-fucosyltransferase activity of His6-Te2FT for acceptor Galβ1-3GlcNAcβ2AA. Reaction without metal ions, EDTA and DTT was used as a control. The effects of metal ions Mg^2+ and Mn^2+ as well as DTT and the chelating agent EDTA on the α1-2-fucosyltransferase activity of His6-Te2FT toward and acceptor Galβ1-3GlcNAcβ2AA were examined at pH 7.5.

His6-Te2FT [2] = biological target: T1, His6-Te2FT; assay: Kinetics of α1-2-fucosyltransferase activity by HPLC assays; format: biochemical, Thermosynechococcus elongatus BP-1; conditions: for Km / kcat: 2FT activity, apparent, pH 6.0, 37° C., MgCl2 20 mM, other substrate fixed at 1 mM
Description: Typical enzymatic assays were carried out in duplicate in a total volume of 10 μL in Tris-HCl buffer (pH 6.0, 200 mM) containing MgCl2 (20 mM), GDP-fucose, Galβ1-3GlcNAcβ2AA, and the recombinant His6-Te2FT (0.75 μg). All reactions were allowed to proceed for 10 min at 37° C. Apparent kinetic parameters were obtained by varying the GDP-fucose concentration from 0.1 to 10.0 mM (0.1, 0.2, 0.4, 1.0, 5.0, and 10.0 mM) and a fixed concentration of Galβ1-3GlcNAcβ2AA (1 mM); or a fixed concentration of GDP-fucose (1 mM) and varied concentrations of Galβ1-3GlcNAcβ2AA from 0.1 to 10.0 mM (0.1, 0.2, 0.4, 5.0, and 10.0 mM). The reaction mixture was quenched by boiling for 2 minutes and diluted 60-fold for detection. Apparent kinetic parameters were obtained by fitting the data into the Michaelis-Menten equation using Grafit 5.0.

His6-Te2FT [3] = biological target: T1, His6-Te2FT; assay: Kinetics of GDP-fucose hydrolysis by capillary electrophoresis assays; format: biochemical, Thermosynechococcus elongatus BP-1
Description: The enzymatic assays were carried out in duplicate in a total volume of 10 μL in Tris-HCl buffer (200 mM, pH 9.0) containing MgCl2 (20 mM), GDP-fucose and the recombinant protein (4.5 μg). Reactions were allowed to proceed for 30 min at 37° C. Apparent kinetic parameters were obtained by varying the final GDP-fucose concentration from 0.4 to 2.0 mM (0.4, 0.5, 0.6, 0.8, 1.0 and 2.0 mM). Apparent kinetic parameters were obtained by fitting the data (the average values of duplicate assay results) into the Michaelis-Menten equation using Grafit 5.0.

His6-Te2FT [4] = biological target: T1, His6-Te2FT; assay: Acceptor substrate specificity studies of His6-Te2FT; format: biochemical, Thermosynechococcus elongatus BP-1
[5] = test system: Bifidobacterium animalis subsp. lactis (B. lactis) ATCC 27536; assay: Growth of bifidobacteria on mMRS medium with substrate as sole carbohydrate source; format: cell-based; conditions: 2% (wt/vol) in mMRS, 37° C., anaerobic, OD600
Description: (§1) B. infantis 15697 and B. animalis 27536 were tested for growth in the presence of glucose, HMOS, and LNFP I. Growth assays were performed as previously described.^[35] Briefly, two microliters of each resulting overnight culture was used to inoculate 150 μL of modified MRS medium (mMRS), devoid of glucose and supplemented with 2% (wt/vol) of each sterile-filtered substrate as the sole carbohydrate source. The medium was supplemented with 0.05% (wt/vol) 1-cysteine, and in all the cases the cultures in the wells of the microtiter plates were covered with 30 μL of sterile mineral oil to avoid evaporation. The incubations were carried out at 37° C. in an anaerobic chamber (Coy Laboratory Products). Cell growth was monitored in real time by assessing optical density at 600 nm (OD600) using a BioTek PowerWave 340 plate reader (BioTek, Winoosky, Vt.) every 30 min, preceded by 30 seconds of shaking at variable speed. Two biological replicates and three technical replicates each were performed for every strain. Fermentations were carried out in triplicate.

[6] = test system: Bifidobacterium longum subsp. infantis (B. infantis) ATCC 15697; assay: as above; format: cell-based; conditions: 2% (wt/vol) in mMRS, 37° C., anaerobic, OD600
Description: as §1

[7] = pH profile of α1-2-fucosyltransferase activity of His6-Te2FT by HPLC; format: biochemical
Description: Each reaction was carried out in duplicate at 37° C. for 10 minutes in a total volume of 10 μL in a buffer (200 mM) with pH varying from 3.0 to 11.0. The buffers used were: Citric, pH 3.0-4.0, NaOAc/HOAc, pH 4.5, MES, pH 5.0-6.5; Tris-HCl, pH 7.0-9.0; and CAPS, pH 10.0-11.0. The reaction system was: GDP-fucose (1 mM), fluorophore 2-anthranilic acid (2AA)-labeled oligosaccharide (Galβ1-3GlcNAcβ2AA, 1 mM), MgCl2 (20 mM), and the recombinant enzyme, His6-Te2FT (0.25 μg). The reaction mixture was stopped by boiling for 2 min and then adding an equal volume of water (10 μL) to make a […] dilution for Galβ1-3GlcNAcβ2AA. The samples were analyzed by a Shimadzu LC-2010A system equipped with a membrane online degasser, a temperature control unit and a fluorescence detector. A reverse-phase Premier C18 column (250×4.6 mm i.d., 5 μm particle size, Shimadzu) protected with a C18 guard column cartridge was used. The mobile phase was 20% acetonitrile. The ratio of the absorbance for fluorescent-labeled product at 315-400 nm was determined.

[8] = pH profile of GDP-fucose hydrolysis of His6-Te2FT by capillary electrophoresis; format: biochemical
Description: Each reaction was carried out in duplicate at 37° C. for 30 minutes in a total volume of 10 μL in a buffer (200 mM) with pH varying from 3.0 to 11.0. The buffers used were: Citric, pH 3.0-4.0, NaOAc/HOAc, pH 4.5, MES, pH 5.0-6.5; Tris-HCl, pH 7.0-9.0; and CAPS, pH 10.0-11.0 containing GDP-fucose (1 mM), MgCl2 (20 mM) and the recombinant enzyme (3.75 μg). Reactions were stopped by boiling for 2 min followed by adding an equal volume of water (10 μL) to make a two-fold dilution. The samples were kept on ice until aliquots of 6 μL were withdrawn and analyzed by a Beckman P/ACE MDQ capillary electrophoresis system (60 cm×75 μm i.d.) with a PDA detector. The ratio of the absorbance for GDP-fucose and GDP at 254 nm was determined at different concentrations (2.5, 5, and 10 mM). All assays were carried out in duplicate.

[9] = Effect of temperature on α1-2-fucosyltransferase activity of His6-Te2FT; format: biochemical
Description: Assays were carried out in a total volume of 10 μL in a Tris-HCl buffer (pH 6.0, 200 mM) at temperatures ranging from 15° C. to 70° C. The reaction mixture contained GDP-fucose (1 mM), MgCl2 (20 mM), Galβ1-3GlcNAcβ2AA (1 mM), and the recombinant His6-Te2FT (1.5 μg). All reactions were allowed to proceed for 10 minutes at various temperatures. The reaction was stopped by boiling for 2 minutes, and diluted 60-fold for detection.

[10] = Effect of freeze-dry cycle (lyophilization and rehydration) on His6-Te2FT activity; format: biochemical; conditions: lyophilized, rehydrated
Description: Purified His6-Te2FT samples were prepared essentially as described in Example 1, and were dialyzed against 20 mM Tris-HCl without glycerol and lyophilized. The Te2FT powders were stored at −70° C. for 20 days, or for several months. After that, the dried powder was dissolved in water and 20 mM Tris-HCl buffer, respectively. The activities of the lyophilized His6-Te2FT samples were compared with the same amount and concentration of freshly prepared Te2FT samples. The reaction mixture was GDP-fucose (1 mM), Galβ1-3GlcNAcβ2AA, (1 mM), MgCl2 (20 mM), and His6-Te2FT (0.75 μg). All reactions were performed in duplicate and allowed to proceed for 10 minutes at 37° C.

[11] = GDP-Fuc hydrolysis, apparent, pH 9.0, 37° C., MgCl2 20 mM
[12] = acceptor Galβ1-3GlcNAcβ2AA, 37° C., 10 minutes

[Cl-].[Cl-].[Mg+2] [Mg^2+, MgCl2]
enhancement of α1-2-fucosyltransferase activity (His6-Te2FT [1]): about two-fold

C[C@@H]1O[C@H](OP(=O)(O)OP(=O)(O)OC[C@H]2O[C@@H](n3cnc4c(=O)[nH]c(N)nc43)[C@H](O)[C@@H]2O)[C@@H](O)[C@H](O)[C@@H]1O [GDP-fucose, Guanosine 5′-diphosphate-fucose]
Km (His6-Te2FT [2]): 730 ± 680 µM | kcat (His6-Te2FT [2]): 0.438 ± 0.013 s⁻¹ | kcat value for GDP-fucose, higher compared to GST-WbsJ (His6-Te2FT [2]; His6-Te2FT versus GST-WbsJ, acceptor Galβ1-3GlcNAcβ2AA): 201 fold | kcat value for GDP-fucose, higher compared to His6Prop-WgbL (His6-Te2FT [2]; His6-Te2FT versus His6Prop-WgbL, acceptor Galβ1-3GlcNAcβ2AA): 6.7 fold | kcat value for GDP-fucose, higher compared to Hp2FT (His6-Te2FT [2]; His6-Te2FT versus Hp2FT, acceptor Galβ1-3GlcNAcβ2AA): 14.6 fold | kcat/KM value for GDP-Fuc, higher than WbgL (His6-Te2FT [2]; His6-Te2FT versus WbgL): 2.5 fold | kcat/KM value for GDP-Fuc, higher than WbsJ (His6-Te2FT [2]; His6-Te2FT versus WbsJ): 29.2 fold | Km (His6-Te2FT [3]; [11]): 560 ± 210 µM | kcat (His6-Te2FT [3]; [11]): 0.005 ± 0.001 s⁻¹ | GDP-fucose (donor) hydrolysis activity weaker than α1-2-fucosyltransferase activity (His6-Te2FT [3]; His6-Te2FT, ratio of kcat/KM): 47 fold

Galβ1-3GalNAcαOR
suitability as acceptor substrate for adding α1-2-linked fucose (His6-Te2FT [4]): worked well

Galβ1-4GlcNAcβOR
suitability as acceptor substrate for adding α1-2-linked fucose (His6-Te2FT [4]): not good acceptors

Gal β1-3GlcNAcβ1-3Galβ1-4Glc [LNT]
suitability as acceptor substrate for adding α1-2-linked fucose (His6-Te2FT [4]): excellent acceptor

Galβ1-4GlcβOR
suitability as acceptor substrate for adding α1-2-linked fucose (His6-Te2FT [4]): not good acceptors

Galβ1-3GlcNAcβOR
suitability as acceptor substrate for adding α1-2-linked fucose (His6-Te2FT [4]): worked well

Galβ1-3GalNAcβOR
suitability as acceptor substrate for adding α1-2-linked fucose (His6-Te2FT [4]): worked well

CC(=O)N[C@H]1[C@H](O[C@H]2[C@@H](O)[C@@H](CO)O[C@@H](O[C@H]3[C@H](O)[C@@H](O)C(O)O[C@@H]3CO)[C@@H]2O)O[C@H](CO)[C@@H](O)[C@@H]1O[C@@H]1O[C@H](CO)[C@H](O)[C@H](O)[C@H]1O[C@@H]1O[C@@H](C)[C@@H](O)[C@@H](O)[C@@H]1O (some centres unmarked) [LNFP I, Fucα1-2Galβ1-3GlcNAcβ1-3Galβ1-4Glc]
growth with substrate as sole carbon source [5]: failed to grow | growth compared with growth on glucose [6]: remarkably faster | growth with substrate as sole carbon source [6]: grew well; also recorded: selectively consumed as a carbon source

Galβ1-3GlcNAcβ2AA
Km (His6-Te2FT [2]): 790 ± 110 µM | kcat (His6-Te2FT [2]): 0.333 ± 0.012 s⁻¹ | affinity for the acceptor compared to GST-WbsJ, His6Prop-WgbL and Hp2FT (His6-Te2FT [2]; His6-Te2FT versus other 2FTs): higher affinity

O[C@H](CS)[C@H](O)CS (racemic) [DTT, dithiothreitol]
effect on α1-2-fucosyltransferase activity (His6-Te2FT [1]): decreased His6-Te2FT activity moderately

O=C(O)CN(CCN(CC(=O)O)CC(=O)O)CC(=O)O [EDTA, ethylenediaminetetraacetic acid]
effect on α1-2-fucosyltransferase activity (His6-Te2FT [1]): decreased its activity only slightly

Gal1-3GlcNAcαOR
suitability as acceptor substrate for adding α1-2-linked fucose (His6-Te2FT [4]): worked well

[Cl][Mn][Cl] [Mn^2+, MnCl2]
enhancement of α1-2-fucosyltransferase activity (His6-Te2FT [1]): about two-fold

B1: His6-Te2FT: N-His6-tagged recombinant α1-2-fucosyltransferase from Thermosynechococcus elongatus BP-1 (SEQ ID NO:1) (protein, listed as Thermosynechococcus elongatus)
chain: MIIVHLCGGLGNQMFQYAAGLAAAHRIGSEVKFDTHWFDATCLHQGLELRRVFGLELPEPSSKDLRKVLGACVHPAVRRLLAGHFLHGLRPKSLVIQPHFHYWTGFEHLPDNVYLEGYWQSERYFSNIADIIRQQFRFVEPLDPHNAALMDEMQSGVSVSLHIRRGDYFNNPQMRRVHGVDLSEYYPAAVATMIEKTNAERFYVFSDDPQWVLEHLKLPVSYTVVDHNRGAASYRDMQLMSACRHHIIANSTFSWWGAWLNPRPDKVVIAPRHWFNVDVFDTRDLYCPGWIVL
modifications: N-terminal His6 tag
pH of optimal activities [7, 12]: 4.5-6.0 | pH range in which active [7, 12]: 4.0-10.0 | activity as % of the optimal activity ([7]; pH 6.5): About 85% | optimal pH for the GDP-fucose hydrolysis activity ([8]; 37° C., 30 minutes): 9.5 | donor hydrolysis activity ([8]; pH range 5.0-8.0, 15-fold more enzyme and 3-fold longer reaction time): at a minimum | requirement of a divalent metal ion for α1-2-fucosyltransferase activity (His6-Te2FT [1]): not required | activity at low temperature ([9]; 15° C. and 20° C.): Low activity | activity at high temperature ([9]; 65° C. or 70° C.): minimal activity | temperature range in which active ([9]; pH 6.0, 10 minutes): 25-60 °C | temperature range of optimal activities ([9]; pH 6.0, 10 minutes): 30-45 °C | stability to freeze-dry treatment [10]: can survive a freeze-dry treatment
